# Results taken from patent US10308683B2, “Bicyclic lipolantipeptide, preparation and use as antimicrobial agent” (priority 2015, dated 2019).
# How the values were obtained:
# [1] = tested on: S. pneumoniae - ATCC 33400; details: Table 2
# Method: (§1) Methods for Dilution Antibacterial Susceptibility Tests for Bacteria That Grow Aerobically; Approved Standard—Tenth Edition (2015). Clinical and Laboratory Standards Institute Document M07-A10. • 2. Methods for Antimicrobial Susceptibility Testing of Anaerobic Bacteria; Approved Standard—Eighth Edition (2012). Clinical and Laboratory Standards Institute Document M11-A8. • 3. Antimycobacterial activity was determined as described in Journal of Clinical Microbiology (2009, 47:1773-1780) by Springer et al. Quantitative drug susceptibility testing of Mycobacterium tuberculosis by use of MGIT 960 and EpiCenter Instrumentation.
# S. aureus - USA300 = details: Table 2
# [2] = tested on: S. aureus - ATCC 1683 (Methicillin resistant); details: for Minimal Inhibitory Concentration (MIC): Table 2, S. aureus - ATCC 1683 (Methicillin resistant)
# [3] = tested on: S. aureus - ATCC 13709 (Fully susceptible); experiment: MIC, CLSI dilution susceptibility test (aerobic); type: cell-based; details: for Minimal Inhibitory Concentration (MIC): Table 2, S. aureus - ATCC 13709 (Fully susceptible)
# From the text: Clinical and Laboratory Standards Institute Document M07-A10. • 2. […] Clinical and Laboratory Standards Institute Document M11-A8. • 3.
# [4] = tested on: S. pneumoniae 6883 (Penicillin resistant); details: Table 3, Gram-positive aerobe
# M. tuberculosis H37Rv = details: Table 3, Mycobacteria
# [5] = tested on: S. pneumoniae R119 (R6 like) (Penicillin sensitive); details: Table 3, Gram-positive aerobe
# Method: as §1
# S. mitis 39050149 = details: Table 3, Gram-positive aerobe
# Method: as §1
# [6] = tested on: S. epidermidis 37361192 (Methicillin sensitive); details: Table 3, Gram-positive aerobe
# Method: as §1
# [7] = tested on: E. faecium ATCC1858 (Vancomycin (Van) sensitive); details: Table 3, Gram-positive aerobe
# Method: as §1
# S. pyogenes 37352281 = details: Table 3, Gram-positive aerobe
# Method: as §1
# S. agalactiae 31432663 = details: Table 3, Gram-positive aerobe
# Method: as §1
# C. difficile ATCC 700057 = details: Table 3, Gram-positive anaerobe
# Method: as §1
# S. oralis 39151368 = details: Table 3, Gram-positive aerobe
# Method: as §1
# P. acnes 1201 = details: Table 3, Gram-positive anaerobe
# Method: as §1
# [8] = tested on: E. faecium 31152980 (Van A resistant); details: Table 3, Gram-positive aerobe
# [9] = tested on: S. epidermidis 31435861 (Methicillin resistant); details: Table 3, Gram-positive aerobe
# [10] = tested on: E. faecium 31430797 (Van B resistant); details: Table 3, Gram-positive aerobe
SMILES,Minimal Inhibitory Concentration (MIC) [1] [µg/mL],Minimal Inhibitory Concentration (MIC) (S. aureus - USA300) [µg/mL],Minimal Inhibitory Concentration (MIC) [2] [µg/mL],Minimal Inhibitory Concentration (MIC) [3] [µg/mL],MIC [4] [µg/mL],MIC (M. tuberculosis H37Rv) [µg/mL],MIC [5] [µg/mL],MIC (S. mitis 39050149) [µg/mL],MIC [6] [µg/mL],MIC [7] [µg/mL],MIC (S. pyogenes 37352281) [µg/mL],MIC (S. agalactiae 31432663) [µg/mL],MIC (C. difficile ATCC 700057) [µg/mL],MIC (S. oralis 39151368) [µg/mL],MIC (P. acnes 1201) [µg/mL],MIC [8] [µg/mL],"MIC ([2]; Table 3, Gram-positive aerobe, S. aureus ATCC1683, Methicillin resistant) [µg/mL]","MIC ([3]; Table 3, Gram-positive aerobe, S. aureus ATCC13709, Methicillin sensitive) [µg/mL]",MIC [9] [µg/mL],MIC [10] [µg/mL]
C/N=C(\NC)NCCCCCCCCCCCCCCC(=O)NC(C)C(=O)NC1CC2(CS/C=C\NC(=O)C(CO)NC(=O)C(CCC(N)=O)NC2=O)NC(=O)CNC(=O)C(CC(C)C)NC1=O (stereo not drawn) [Compound A],≤0.15,≤0.08,≤0.3,≤0.04,–,–,–,–,–,–,–,–,–,–,–,–,–,–,–,–
C/N=C(\NC)NCCCCCCCCCCCCCCCCC(=O)NC(C)C(=O)NC1CC2(CS/C=C\NC(=O)C(CO)NC(=O)C(CCC(N)=O)NC2=O)NC(=O)CNC(=O)C(CC(C)C)NC1=O (stereo not drawn) [Compound C],≤0.08,≤0.08,≤0.3,≤0.04,≤0.125,≤1,≤0.125,≤0.25,≤0.25,≤0.5,≤0.5,≤0.25,≤0.25,≤0.25,≤0.06,≤0.25,≤0.3,≤0.04,≤0.25,≤0.25
